Results taken from ChEMBL document CHEMBL1121370, “Synthesis and biological activity of a ketomethylene analogue of a tripeptide inhibitor of angiotensin converting enzyme” (J Med Chem, 1980).

Tests used:
Cavia porcellus = organism: Cavia porcellus; assay: Compound is evaluated for the inhibition of guinea pig ileum contraction caused by 25 ng/mL angiotensin I; type: functional, organism-based
[1] = Enzyme kinetic inhibition constant against tripeptide, Angiotensin I as substrate in a competition inhibition assay
[2] = Enzyme kinetic inhibition constant against tripeptide, Hip-His-Leu as substrate

| IC50 (Cavia porcellus) | Ki [1] | Ki [2] | Compound |
| --- | --- | --- | --- |
| 0.5 µg/mL | 870 nM | 106 nM | O=C(N[C@@H](Cc1ccccc1)C(=O)CCC(=O)N1CCC[C@H]1C(=O)O)c1ccccc1 |
| 0.05 µg/mL |  | 71.5 nM | C[C@H](CS)C(=O)N1CCC[C@H]1C(=O)O [CAPTOPRIL] |
